Target: Tyrosine-protein kinase BTK (Homo sapiens, UniProt Q06187)
Assay: Caliper-Based Kinase Assay: A Caliper-based kinase assay (Caliper Life Sciences, Hopkinton, Mass.) was used to measure inhibition of Btk kinase activity of a compound of the present disclosure. […] The reaction was then terminated with EDTA, final concentration 20 mM and the phosphorylated reaction product was quantified on a Caliper Desktop Profiler (Caliper LabChip 3000).

Sequence of Tyrosine-protein kinase BTK (Q06187 whole entry): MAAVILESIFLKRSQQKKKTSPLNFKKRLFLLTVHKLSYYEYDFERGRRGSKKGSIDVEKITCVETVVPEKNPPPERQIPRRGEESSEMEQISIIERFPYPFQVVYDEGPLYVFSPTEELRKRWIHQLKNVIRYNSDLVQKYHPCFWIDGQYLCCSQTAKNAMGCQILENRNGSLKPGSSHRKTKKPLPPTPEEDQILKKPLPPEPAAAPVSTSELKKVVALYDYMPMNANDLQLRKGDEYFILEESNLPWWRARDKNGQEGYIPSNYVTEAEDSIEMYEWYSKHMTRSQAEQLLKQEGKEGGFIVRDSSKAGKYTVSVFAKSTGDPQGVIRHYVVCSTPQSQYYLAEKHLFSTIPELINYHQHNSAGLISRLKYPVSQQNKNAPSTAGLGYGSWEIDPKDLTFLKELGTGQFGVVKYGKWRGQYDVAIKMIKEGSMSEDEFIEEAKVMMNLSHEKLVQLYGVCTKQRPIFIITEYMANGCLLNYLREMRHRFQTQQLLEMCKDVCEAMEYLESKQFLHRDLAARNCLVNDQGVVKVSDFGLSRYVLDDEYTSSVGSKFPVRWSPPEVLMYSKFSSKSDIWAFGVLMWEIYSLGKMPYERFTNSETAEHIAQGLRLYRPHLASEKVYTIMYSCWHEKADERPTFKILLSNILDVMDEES

IC50 [µM]	SMILES
0.0006	CC(C)(C)N1CCN(C(C)(C)C=C(C#N)C(=O)N2CCC[C@@H](n3nc(-c4ccc(Oc5ccccc5)cc4F)c4c(N)ncnc43)C2)CC1
0.0161	CC(C)(C=C(C#N)C(=O)N1CCC[C@H]1Cn1nc(-c2ccc(Oc3ccccc3)cc2F)c2c(N)ncnc21)NC1COC1

SMILES	IC50 [µM]
CC(C)(C=C(C#N)C(=O)N1CCC[C@H]1Cn1nc(-c2ccc(Oc3ccccc3)cc2F)c2c(N)ncnc21)N(C1CC1)C1COC1	0.026
